Experiments:
Colo205 tumor cells = test: Cell growth inhibition assay (CellTiter-Glo), Colo205; assay type: cell-based, Human; conditions: Homo sapiens, COLO 205, 72 h; 3 days incubation
Procedure: (§1) Human breast tumor cells (BT474) were cultured in RPMI (Mediatech […]), containing 10% FBS (JRH Biosciences 12176) and 1% penicillin-streptomycin (Invitrogen 15140). Human head and neck tumor cells (HN5) were cultured in high glucose DMEM (Mediatech 50-013-PB) containing 10% FBS and 1% penicillin-streptomycin. Human colon tumor cells (Colo205) were cultured in RPMI (Mediatech 50-020-PB) containing 10% FBS and 1% penicillin-streptomycin. Human melanoma cancer cells (SK-MEL-28) were cultured in EMEM with nonessential amino acids (Mediatech 50-011-PB) containing 10% FBS, 1% sodium pyruvate (JT Baker 3354-04), and 1% penicillin-streptomycin. Human melanoma cancer cells (A375P F11s) were cultured in RPMI (Mediatech 50-020-PB) containing 10% FBS, 1% sodium pyruvate, and 1% penicillin-streptomycin. Human colon cancer cells (HT-29) were cultured in high glucose DMEM (Mediatech 50-013-PB) containing 10% FBS and 1% penicillin-streptomycin. Human melanoma cancer cells (SK-MEL-3) were cultured in McCoy's 5A (50-025-PB) containing 15% FBS, and 1% penicillin-streptomycin. All cell lines were maintained at 37° C. in a humidified 5% CO2, 95% air incubator. Cells were harvested using trypsin/EDTA (Invitrogen 25200), counted using a haemocytometer, and plated. For 96-well assays (using white full-area NUNC plates cat. #136102), cells were plated in 105 μL at the following densities (cells/well): HNS, 500; Colo 205, 500; SK-MEL-28, 500; A375P F11s, 500; HT-29, 500; SK-MEL-3, 500; and BT474, 3000. For 384-well assays (white full-area NUNC plates, cat. #781080), cells were plated in 48 μL at the following densities (cells/well): HNS, 500; Colo205, 500; SK-MEL-28, 500; A375P F11s, 500; HT-29, 500; SK-MEL-3, 500; and BT474, 2000.
(§2) The next day, compounds were diluted as follow: For 96-well assays, 13.5 μL of compound in DMSO were diluted using nine (9) serial 1:3 dilutions of 4.5 μL in 9 of DMSO. Medium (270 μL/well of RPMI with 10% FBS and 1% penicillin-streptomycin) was added to the plates. Aliquots (7 μL) were added to cells in the final assay giving a final DMSO concentration of 0.2%. For 384-well assays, 15 μL of compound in DMSO were diluted using nine (9) serial 1:3 dilutions of 5 μL in 10 μL of DMSO, followed by a further dilution of 5 μL of compound with 95 μL of medium, of which 2 μL were added to cells in the final assay giving a final DMSO concentration of 0.2%. Cells were incubated at 37° C., 5% CO2 for 3 days.
(§3) Total ATP was measured (as a surrogate estimate of cell number) using CellTiter-Glo® reagent (Promega G7571). Briefly, plates were removed from the incubator and allowed to equilibrate to room temperature for 30 minutes. CellTiter-Glo® (25 μL or 55 μL for 384-well or 96-well assays, respectively) reagent was added to each well and plates were shaken on an orbital plate shaker for 2 minutes. Plates were incubated without shaking for a further 30 minutes and read on an LJL Analyst GT reader in luminometer mode with an integration time of 0.5 seconds per well. Percent inhibition of cell growth was calculated relative to DMSO vehicle-treated control wells. Concentration of compound required to give 50% inhibition of vehicle-treated control cell growth (IC50) was interpolated using a 4-parameter fit for determining IC50 using the following equation: Y=A +((B−A)/(1+((C/X)̂D))) where […].

EGFR = target: T1, EGFR (Homo sapiens, UniProt P00533); test: EGFR substrate phosphorylation assay (HTRF); assay type: biochemical
T1 construct: made in house; host or cells: baculovirus expression system
Procedure: (§4) Compounds of the present invention were tested for EGFR and ErbB-2 protein tyrosine kinase inhibitory activity in substrate phosphorylation assays using enzymes purified from a baculovirus expression system. Reagent production was conducted essentially as described in Brignola, P. S., et al, (2002) J. Biol. Chem. 277(2):1576-1585.
(§5) The method measures the ability of the isolated enzyme to catalyse the transfer of the gamma-phosphate from ATP onto the tyrosine residue of a biotinylated synthetic peptide referenced “Peptide C” in Brignola, P. S., et al, (2002) J. Biol. Chem. 277(2):1576-1585. The extent of tyrosine phosphorylation was measured using an anti-phosphotyrosine antibody, and quantified by homogenous time-resolved fluorescence (HTRF).
(§6) Reactions were performed in black 384-well polystyrene flat-bottom plates in a final volume of 20 μL. Assays were performed by adding 10 μL of each of the following solutions, Substrate Mix and Enzyme Mix: The Substrate Mix contained 100 mM 3-[N-morpholino]propanesulfonic acid (MOPS) (pH 7.5), 2 mM MnCl2, 20 μM ATP, 0.01% Tween-20, 0.1 mg/mL (BSA), 0.8 uM peptide substrate, and 1 mM dithiothreitol. The Enzyme Mix contained 100 mM MOPS (pH7.5); 0.01% Tween-20; 0.1 mg/mL BSA, and either 0.8 nM EGFR, 10 nM ErbB2, or 1 nM ErbB4. The Enzyme Mix was added to the compound plates and the plates were incubated at 20° C. for 1 hr. The reactions were then started by adding the Substrate Mix.
(§7) After initiating the reaction with the method described above, the reactions were allowed to proceed for 90 minutes at 20° C. The reactions were then terminated by the addition of 20 μL 100 mM EDTA to each well. 40 μL/well of HTRF detection mix were added to the assay plates. The final concentrations of the detection reagents were: 100 mM HEPES (pH7.5), 0.1 mg/mL BSA, 15 nM streptavidin-labeled allophycocyanin (PerkinElmer), and 1 nM europium-labeled anti-phosphotyrosine antibody (Perkin Elmer). Assay plates were left unsealed and were counted in a Wallac Multilabel Counter 1420 (PerkinElmer).
(§8) Compounds under analysis were dissolved in dimethylsulfoxide (DMSO) to 1.0 mM and serially diluted 1 to 3 with DMSO through twelve dilutions. 1 μL of each concentration was transferred to the corresponding well of an assay plate. This creates a final compound concentration range from 0.00027 to 47.6 μM.
(§9) The data for dose responses were plotted as % Inhibition calculated with the data reduction formula 100*(1-(U1−C2)/(C1−C2)) versus concentration of compound where U1 is the unknown value, C1 is the average control value obtained for 4.76% DMSO, and C2 is the average control value obtained for 0.035 M EDTA. Data were fitted with a curve described by:
(§10) where Vmax is the upper asymptote, Y2 is the Y intercept, and K is the IC50. The results for each compound were recorded as pIC50s, calculated as follows: […]

ErbB2 = target: T2, ErbB2 (Homo sapiens, UniProt P04626); test: ErbB-2 substrate phosphorylation assay (HTRF); assay type: biochemical
T2 construct: made in house; host or cells: baculovirus expression system
Procedure: as §4, §5, §6, §7, §8, §9, §10

SK-MEL-28 tumor cells = test: Cell growth inhibition assay (CellTiter-Glo), SK-MEL-28; assay type: cell-based, Human; conditions: Homo sapiens, SK-MEL-28, 72 h; 3 days incubation
Procedure: as §1, §2, §3

B-Raf = B-Raf (Homo sapiens, UniProt P15056); test: B-Raf Accelerated MEK ATPase assay (BRAMA), Method A or B; assay type: biochemical; conditions: Method B: final MEK 150 nM, single end point read
Procedure: Compounds of the present invention were tested for B-Raf protein serine kinase inhibitory activity in a B-Raf Accelerated MEK ATPase assay (BRAMA). The BRAMA assay is a high sensitivity assay which measures an intrinsic MEK-mediated ATP hydrolysis uncoupled from downstream ERK phosphorylation by coupling the formation of ADP to NADH oxidation through the enzymes pyruvate kinase and lactate dehydrogenase. When ADP production is initiated by addition of catalytic amounts of an activated Raf enzyme and non-phosphorylated MEK, one observes robust ADP production concomitant with Raf-mediated phosphorylation of MEK.
Method A: Specific details of the assay are disclosed in: C. Rominger, M. Schaber, E. May. Assay for B-Raf Activity Based on Intrinsic MEK ATPase Activity. Statutory Invention Registration 11/084,993 (March, 2005). Method B: The method is the same as method A, but includes the following changes: 1) the assay was performed with a final MEK concentration of 150 nM and 2) the assay was read as single end point instead of a kinetic read.

T1 sequence (P00533 25-1210): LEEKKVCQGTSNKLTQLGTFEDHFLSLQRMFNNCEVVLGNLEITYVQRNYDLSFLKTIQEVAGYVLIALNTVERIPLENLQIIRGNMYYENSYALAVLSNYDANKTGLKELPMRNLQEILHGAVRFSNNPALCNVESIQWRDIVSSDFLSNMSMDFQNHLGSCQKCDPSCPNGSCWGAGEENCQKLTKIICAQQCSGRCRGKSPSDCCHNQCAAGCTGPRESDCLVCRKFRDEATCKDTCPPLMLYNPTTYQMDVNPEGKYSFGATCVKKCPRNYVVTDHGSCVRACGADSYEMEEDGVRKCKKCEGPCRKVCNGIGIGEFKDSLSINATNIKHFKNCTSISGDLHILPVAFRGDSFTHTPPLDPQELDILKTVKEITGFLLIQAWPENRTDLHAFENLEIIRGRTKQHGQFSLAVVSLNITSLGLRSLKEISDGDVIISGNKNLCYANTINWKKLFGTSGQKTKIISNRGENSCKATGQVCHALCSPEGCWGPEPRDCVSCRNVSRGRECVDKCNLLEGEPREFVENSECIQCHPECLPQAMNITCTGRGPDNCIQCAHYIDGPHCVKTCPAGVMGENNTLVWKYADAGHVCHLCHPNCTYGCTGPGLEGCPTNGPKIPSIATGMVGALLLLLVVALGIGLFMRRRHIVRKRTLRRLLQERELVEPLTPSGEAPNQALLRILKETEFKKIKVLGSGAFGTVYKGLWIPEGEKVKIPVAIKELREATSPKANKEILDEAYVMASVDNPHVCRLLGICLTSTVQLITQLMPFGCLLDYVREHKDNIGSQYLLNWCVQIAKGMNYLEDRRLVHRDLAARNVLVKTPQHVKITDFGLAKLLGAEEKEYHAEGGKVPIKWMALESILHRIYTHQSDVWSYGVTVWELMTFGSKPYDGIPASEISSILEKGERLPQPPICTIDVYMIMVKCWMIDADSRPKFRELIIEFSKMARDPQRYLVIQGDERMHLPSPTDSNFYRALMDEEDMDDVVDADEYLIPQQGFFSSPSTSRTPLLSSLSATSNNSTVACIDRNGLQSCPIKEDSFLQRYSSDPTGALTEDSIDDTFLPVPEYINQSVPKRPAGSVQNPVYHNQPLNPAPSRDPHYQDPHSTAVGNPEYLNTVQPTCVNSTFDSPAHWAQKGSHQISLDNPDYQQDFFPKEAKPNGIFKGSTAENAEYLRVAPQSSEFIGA
T2 sequence (P04626 23-1255): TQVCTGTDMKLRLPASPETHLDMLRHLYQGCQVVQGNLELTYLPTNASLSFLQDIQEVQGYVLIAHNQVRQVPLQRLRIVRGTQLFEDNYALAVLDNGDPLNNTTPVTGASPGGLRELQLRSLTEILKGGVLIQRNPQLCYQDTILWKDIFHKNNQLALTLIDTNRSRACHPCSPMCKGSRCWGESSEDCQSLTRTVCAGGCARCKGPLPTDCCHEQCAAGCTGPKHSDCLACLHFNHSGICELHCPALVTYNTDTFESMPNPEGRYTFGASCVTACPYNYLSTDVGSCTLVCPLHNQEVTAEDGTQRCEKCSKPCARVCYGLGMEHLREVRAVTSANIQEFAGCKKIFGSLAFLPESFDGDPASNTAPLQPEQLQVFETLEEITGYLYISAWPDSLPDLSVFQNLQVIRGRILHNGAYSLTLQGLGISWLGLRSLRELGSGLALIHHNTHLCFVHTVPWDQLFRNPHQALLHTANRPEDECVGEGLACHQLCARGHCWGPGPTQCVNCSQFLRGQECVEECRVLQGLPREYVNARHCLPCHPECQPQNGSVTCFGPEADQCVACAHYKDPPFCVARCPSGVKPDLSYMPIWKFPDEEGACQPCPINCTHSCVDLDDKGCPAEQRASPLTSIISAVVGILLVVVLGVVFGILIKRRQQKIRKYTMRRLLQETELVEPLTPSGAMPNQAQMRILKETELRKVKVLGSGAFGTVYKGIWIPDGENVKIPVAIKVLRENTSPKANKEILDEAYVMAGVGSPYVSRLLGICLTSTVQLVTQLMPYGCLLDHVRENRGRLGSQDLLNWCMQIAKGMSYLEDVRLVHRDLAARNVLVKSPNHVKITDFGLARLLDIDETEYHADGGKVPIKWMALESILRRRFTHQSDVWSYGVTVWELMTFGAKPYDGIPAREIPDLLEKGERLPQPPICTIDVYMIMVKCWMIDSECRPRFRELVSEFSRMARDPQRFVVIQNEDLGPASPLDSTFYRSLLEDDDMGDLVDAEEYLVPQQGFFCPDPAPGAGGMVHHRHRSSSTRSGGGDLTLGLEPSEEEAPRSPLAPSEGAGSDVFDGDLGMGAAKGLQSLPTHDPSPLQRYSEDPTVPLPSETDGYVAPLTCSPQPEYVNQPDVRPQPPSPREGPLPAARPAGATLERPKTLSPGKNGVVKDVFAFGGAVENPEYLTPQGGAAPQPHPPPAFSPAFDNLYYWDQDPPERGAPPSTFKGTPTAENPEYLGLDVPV
Sequence of B-Raf (P15056 whole entry): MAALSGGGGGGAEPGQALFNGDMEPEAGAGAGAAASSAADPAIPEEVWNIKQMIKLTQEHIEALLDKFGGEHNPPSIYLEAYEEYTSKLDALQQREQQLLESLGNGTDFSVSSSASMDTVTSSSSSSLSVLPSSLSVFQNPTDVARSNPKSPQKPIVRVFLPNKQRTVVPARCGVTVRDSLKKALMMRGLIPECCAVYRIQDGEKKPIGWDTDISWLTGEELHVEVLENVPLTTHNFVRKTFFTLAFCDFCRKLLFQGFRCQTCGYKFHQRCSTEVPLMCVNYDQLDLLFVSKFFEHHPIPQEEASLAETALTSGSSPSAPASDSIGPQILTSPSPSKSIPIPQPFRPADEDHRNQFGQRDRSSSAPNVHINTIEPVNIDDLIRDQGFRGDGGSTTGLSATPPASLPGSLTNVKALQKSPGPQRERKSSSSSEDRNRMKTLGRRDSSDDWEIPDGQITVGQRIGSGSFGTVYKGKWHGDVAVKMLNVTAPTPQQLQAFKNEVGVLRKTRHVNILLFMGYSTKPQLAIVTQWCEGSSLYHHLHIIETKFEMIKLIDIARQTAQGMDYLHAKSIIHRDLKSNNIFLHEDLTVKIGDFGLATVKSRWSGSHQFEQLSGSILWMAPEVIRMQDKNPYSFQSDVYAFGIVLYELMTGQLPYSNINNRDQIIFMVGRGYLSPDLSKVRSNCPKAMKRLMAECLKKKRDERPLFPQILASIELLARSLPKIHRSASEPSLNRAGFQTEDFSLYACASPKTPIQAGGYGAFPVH

IC50 (Colo205 tumor cells) | IC50 (EGFR) | IC50 (ErbB2) | IC50 (SK-MEL-28 tumor cells) | IC50 (B-Raf) | Compound
> 1000 nM | 100 to 1000 nM | 100 to 1000 nM | > 1000 nM | 100 to 1000 nM | CCc1nc(-c2cccc(CNS(=O)(=O)c3ccccc3)c2)c(-c2ccnc(Nc3ccc(N4CCN(CCS(C)(=O)=O)CC4)c(F)c3)n2)s1 [Example 35]
> 1000 nM | < 100 nM | < 100 nM | > 1000 nM | 100 to 1000 nM | COc1ccc(Nc2nccc(-c3sc(C(C)C)nc3-c3cccc(NS(=O)(=O)Cc4ccccc4)c3)n2)cc1N1CCN(CCS(C)(=O)=O)CC1 [Example 37]
> 1000 nM | > 1000 nM | > 1000 nM | > 1000 nM | 100 to 1000 nM | CC(C)c1nc(-c2cccc(NS(=O)(=O)c3cn(C)nc3C(F)(F)F)c2)c(-c2ccnc(Nc3ccc(N4CCOCC4)nc3)n2)s1 [Example 40]
> 1000 nM | > 1000 nM | > 1000 nM | > 1000 nM | 100 to 1000 nM | Cc1[nH]c(=O)[nH]c(=O)c1S(=O)(=O)Nc1cccc(-c2nc(C(C)C)sc2-c2ccnc(Nc3ccc(N4CCOCC4)nc3)n2)c1 [Example 41]
> 1000 nM | > 1000 nM | 100 to 1000 nM | > 1000 nM | 100 to 1000 nM | COc1cc(N2CCN(CCS(C)(=O)=O)CC2)c(C)cc1Nc1nccc(-c2sc(C(C)C)nc2-c2cccc(NS(=O)(=O)c3cn(C)cn3)c2)n1 [Example 43]
100 to 1000 nM | < 100 nM | < 100 nM | 100 to 1000 nM | 100 to 1000 nM | COc1cc(N2CCN(CCS(C)(=O)=O)CC2)c(C)cc1Nc1nccc(-c2sc(C(C)C)nc2-c2cccc(NS(=O)(=O)c3c(F)cccc3F)n2)n1 [Example 45]
< 100 nM | > 1000 nM | < 100 nM | 100 to 1000 nM | 100 to 1000 nM | COc1cc(N2CCN(CCS(C)(=O)=O)CC2)c(C)cc1Nc1nccc(-c2sc(C(C)C)nc2-c2cncc(NS(=O)(=O)c3c(F)cccc3F)c2)n1 [Example 48]
< 100 nM | < 100 nM | < 100 nM | 100 to 1000 nM | < 100 nM | COc1cc(N2CCN(CCS(C)(=O)=O)CC2)c(C)cc1Nc1nccc(-c2sc(C(C)C)nc2-c2cccc(NS(=O)(=O)c3cccs3)c2)n1 [Example 50]
< 100 nM | 100 to 1000 nM | < 100 nM | < 100 nM | < 100 nM | COc1cc(N2CCN(CCS(C)(=O)=O)CC2)c(C)cc1Nc1nccc(-c2sc(C(C)C)nc2-c2cccc(NS(=O)(=O)c3cccnc3)c2)n1 [Example 54]
< 100 nM | < 100 nM | < 100 nM | 100 to 1000 nM | < 100 nM | COc1cc(N2CCN(CCS(C)(=O)=O)CC2)c(C)cc1Nc1nccc(-c2sc(C(C)C)nc2-c2cccc(NS(=O)(=O)c3ccco3)c2)n1 [Example 55]
100 to 1000 nM | > 1000 nM | > 1000 nM | 100 to 1000 nM | < 100 nM | O=S(=O)(Nc1cc(-c2nc(N3CCCC3)oc2-c2ccnc(Nc3ccc(N4CCOCC4)c(F)c3)n2)ccc1F)c1ccccc1F [Example 59]
100 to 1000 nM | > 1000 nM | > 1000 nM | > 1000 nM | < 100 nM | CS(=O)(=O)N1CCN(c2ccc(Nc3nccc(-c4oc(N5CCCC5)nc4-c4ccc(F)c(NS(=O)(=O)c5ccccc5F)c4)n3)cn2)CC1 [Example 60]
100 to 1000 nM | > 1000 nM | 100 to 1000 nM | 100 to 1000 nM | < 100 nM | CC(C)c1nc(-c2ccc(F)c(NS(=O)(=O)c3c(F)cccc3F)c2)c(-c2ccnc(Nc3ccc(N4CCN(CCS(C)(=O)=O)CC4)c(F)c3)n2)o1 [Example 61]
100 to 1000 nM | 100 to 1000 nM | < 100 nM | > 1000 nM | 100 to 1000 nM | COc1cc(N2CCN(CCS(C)(=O)=O)CC2)c(C)cc1Nc1nccc(-c2sc(N)nc2-c2cccc(NS(=O)(=O)c3c(F)cccc3F)c2)n1 [Example 63]
< 100 nM |  | > 1000 nM | 100 to 1000 nM | 100 to 1000 nM | COc1cc(N2CCC(CCS(C)(=O)=O)CC2)c(C)cc1Nc1nccc(-c2sc(N3CCCC3)nc2-c2cccc(NS(=O)(=O)c3c(F)cccc3F)c2)n1 [Example 137]
 | > 1000 nM | > 1000 nM | > 1000 nM | < 100 nM | COc1ccc(S(C)(=O)=O)cc1Nc1nccc(-c2sc(N3CCOCC3)nc2-c2cccc(NS(=O)(=O)c3c(F)cccc3F)c2OC)n1 [Example 168]
